Data published in PubChem BioAssay AID1918932 (Molecular Pharmacology Branch, DTP, NCI, 2023).

Test system: 171881-019-R-J1-PDC complex spheroid viability
Test: Anticancer human tumor 171881-019-R-J1-PDC patient-derived invasive breast carcinoma cell line growth inhibition
Conditions: for IC50: curve of first compound; for viability, T/C: stronger effect = lower value; active = viability on the fitted dose curve at most 10% of control; inactive = the rest
Summary of the method: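 Drug combinations with the LSD1 inhibitor iadademstat tested on tumor cells co-cultured as spheroids with endothelial cells and mesenchymal stem cells. Concentrations descended in half-log increments from clinical Cmax or 10 microM.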

[1] = second compound 0.1 µM, first compound 0.000316 µM
[2] = second compound 0.1 µM, first compound 0.001 µM
[3] = second compound 0.1 µM, first compound 0.00316 µM
[4] = second compound 0.1 µM, first compound 0.01 µM
[5] = second compound 0.1 µM, first compound 0.0316 µM
[6] = second compound 0.1 µM, first compound 0.1 µM
[7] = second compound 0.316 µM, first compound 0.000316 µM
[8] = second compound 0.316 µM, first compound 0.001 µM
[9] = second compound 0.316 µM, first compound 0.00316 µM
[10] = second compound 0.316 µM, first compound 0.01 µM
[11] = second compound 0.316 µM, first compound 0.0316 µM
[12] = second compound 0.316 µM, first compound 0.1 µM
[13] = second compound 1 µM, first compound 0.000316 µM
[14] = second compound 1 µM, first compound 0.001 µM
[15] = second compound 1 µM, first compound 0.00316 µM
[16] = second compound 1 µM, first compound 0.01 µM
[17] = second compound 1 µM, first compound 0.0316 µM
[18] = second compound 1 µM, first compound 0.1 µM
[19] = second compound 3.16 µM, first compound 0.000316 µM
[20] = second compound 3.16 µM, first compound 0.001 µM
[21] = second compound 3.16 µM, first compound 0.00316 µM
[22] = second compound 3.16 µM, first compound 0.01 µM
[23] = second compound 3.16 µM, first compound 0.0316 µM
[24] = second compound 3.16 µM, first compound 0.1 µM
[25] = second compound 10 µM, first compound 0.000316 µM
[26] = second compound 10 µM, first compound 0.001 µM
[27] = second compound 10 µM, first compound 0.00316 µM
[28] = second compound 10 µM, first compound 0.01 µM
[29] = second compound 10 µM, first compound 0.0316 µM
[30] = second compound 10 µM, first compound 0.1 µM
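Note: spheroids exposed to agents for 7 days after 3 days growth.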

CC(C)CC(NC(=O)C(Cc1ccccc1)NC(=O)c1cnccn1)B(O)O (stereo not given) + NC1CC1c1ccc(-c2cccc(O)c2)cc1
< 0.316 nM: IC50 (second compound 0.1 µM) | IC50 (second compound 0.316 µM) | IC50 (second compound 1 µM) | IC50 (second compound 3.16 µM) | IC50 (second compound 10 µM)
inactive: viability, T/C [1] 22.8% | viability, T/C [2] 21.4% | viability, T/C [3] 16.4% | viability, T/C [4] 10.8% | viability, T/C [5] 9.75% | viability, T/C [6] 13.1% | viability, T/C [7] 24.2% | viability, T/C [8] 8.57% | viability, T/C [9] 10.7% | viability, T/C [10] 11% | viability, T/C [11] 13.4% | viability, T/C [12] 9.51% | viability, T/C [13] 23.8% | viability, T/C [14] 18.2%
active: viability, T/C [15] 6.24% | viability, T/C [16] 7.73% | viability, T/C [17] 7.79% | viability, T/C [18] 7.59% | viability, T/C [19] 3.29% | viability, T/C [20] 4.7% | viability, T/C [21] 3.45% | viability, T/C [22] 8.88% | viability, T/C [23] 6.7% | viability, T/C [24] 5.34% | viability, T/C [25] 5.61% | viability, T/C [26] 8.2% | viability, T/C [27] 0.52% | viability, T/C [28] 3.61% | viability, T/C [29] 8.57% | viability, T/C [30] 1.8%

CC(C)CC(NC(=O)CNC(=O)c1cc(Cl)ccc1Cl)B1OC(=O)CC(CC(=O)O)(C(=O)O)O1 (stereo not given) + NC1CC1c1ccc(-c2cccc(O)c2)cc1
1.06 nM: IC50 (second compound 0.316 µM)
active: viability, T/C [16] 8.02% | viability, T/C [17] 11.6% | viability, T/C [18] 5.3% | viability, T/C [21] 6.48% | viability, T/C [22] 6.09% | viability, T/C [23] 12.3% | viability, T/C [24] 12.9% | viability, T/C [27] 1.13% | viability, T/C [28] 4.15% | viability, T/C [29] 4.16% | viability, T/C [30] 4.12%
0.719 nM: IC50 (second compound 1 µM)
0.885 nM: IC50 (second compound 0.1 µM)
inactive: viability, T/C [1] 95% | viability, T/C [2] 35.5% | viability, T/C [3] 38.4% | viability, T/C [4] 23% | viability, T/C [5] 5.32% | viability, T/C [6] 15.9% | viability, T/C [7] 91.9% | viability, T/C [8] 49.9% | viability, T/C [9] 28.8% | viability, T/C [10] 24.4% | viability, T/C [11] 13.9% | viability, T/C [12] 11.5% | viability, T/C [13] 76.5% | viability, T/C [14] 39.3% | viability, T/C [15] 16.2% | viability, T/C [19] 43.9% | viability, T/C [20] 42.6% | viability, T/C [25] 19.6% | viability, T/C [26] 24.7%
< 0.316 nM: IC50 (second compound 3.16 µM) | IC50 (second compound 10 µM)

COc1cc(Nc2ncc3c(n2)-c2ccc(Cl)cc2C(c2c(F)cccc2OC)=NC3)ccc1C(=O)O + NC1CC1c1ccc(-c2cccc(O)c2)cc1
301 nM: IC50 (second compound 10 µM)
506 nM: IC50 (second compound 0.316 µM)
inactive: viability, T/C [3] 59.8% | viability, T/C [4] 67.3% | viability, T/C [5] 64.1% | viability, T/C [6] 62.7% | viability, T/C (second compound 0.1 µM, first compound 0.316 µM) 58.5% | viability, T/C (second compound 0.1 µM, first compound 1 µM) 29.4% | viability, T/C [9] 60.5% | viability, T/C [10] 68.1% | viability, T/C [11] 68% | viability, T/C [12] 65.7% | viability, T/C (second compound 0.316 µM, first compound 0.316 µM) 61.9% | viability, T/C (second compound 0.316 µM, first compound 1 µM) 32.6% | viability, T/C [15] 67.2% | viability, T/C [16] 70% | viability, T/C [17] 68.7% | viability, T/C [18] 69.2% | viability, T/C (second compound 1 µM, first compound 0.316 µM) 63.2% | viability, T/C (second compound 1 µM, first compound 1 µM) 31.9% | viability, T/C [21] 71.3% | viability, T/C [22] 75.5% | viability, T/C [23] 72.5% | viability, T/C [24] 69.1% | viability, T/C (second compound 3.16 µM, first compound 0.316 µM) 54.7% | viability, T/C (second compound 3.16 µM, first compound 1 µM) 25.4% | viability, T/C [27] 59.4% | viability, T/C [28] 61% | viability, T/C [29] 64.1% | viability, T/C [30] 56.9% | viability, T/C (second compound 10 µM, first compound 0.316 µM) 49.9% | viability, T/C (second compound 10 µM, first compound 1 µM) 25.3%
517 nM: IC50 (second compound 1 µM)
380 nM: IC50 (second compound 3.16 µM)
442 nM: IC50 (second compound 0.1 µM)
